Results from PubChem BioAssay AID1195 (EPA DSSTox, 2008).

Tested on: human maximum recommended daily dose, FDA database
Experiment: DSSTox (FDAMDD) FDA Maximum (Recommended) Daily Dose Database
Settings: hits give low values
In short: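 MRDD values come from clinical trials with daily oral dosing, usually for 3–12 months, for the average adult, in mg/day converted to mg/kg-bw/day assuming 60 kg. Antineoplastic mg/m2 doses are divided by 37. Activity score maps log10(1/MRDD mmol) onto 1–100.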

[1] = TherapeuticCategory: antibacterial
[2] = TherapeuticCategory: antihypertensive
[3] = TherapeuticCategory: antithrombotic
[4] = TherapeuticCategory: antidepressant
[5] = TherapeuticCategory: glucocorticoid
[6] = TherapeuticCategory: sedative, hypnotic
[7] = TherapeuticCategory: antineoplastic
[8] = TherapeuticCategory: diagnostic aid
[9] = TherapeuticCategory: bronchodilator
[10] = TherapeuticCategory: anthelmintic

## Cc1c(-c2ccccc2)n(/N=N/n2c(-c3ccccc3)c(C)[n+]3ccccc23)c2cccc[n+]12
TherapeuticCategory: skeletal muscle relaxant
  maximum recommended daily dose (mmol/kg-bw/day): 0.00165

## Nc1ccn([C@@H]2O[C@H](CO)[C@@H](O)C2O)c(=O)n1 (some centres undefined)
TherapeuticCategory: antineoplastic, antiviral
  maximum recommended daily dose (mmol/kg-bw/day): 0.0111

## N[C@@H](CCC(=O)O)C(=O)O
TherapeuticCategory: experimental antiepileptic
  maximum recommended daily dose (mmol/kg-bw/day): 0.68

## CC(C)[C@H](N)C(=O)OCCOCn1cnc2c(=O)[nH]c(N)nc21
TherapeuticCategory: antiviral
  maximum recommended daily dose (mmol/kg-bw/day): 0.154

## C[C@@H]1[C@H](O)[C@@H](C)/C=C/C=C/C=C/C=C/C=C/C=C/C=C/[C@H](O[C@@H]2O[C@H](C)[C@@H](O)[C@H](N)[C@@H]2O)C[C@@H]2O[C@](O)(C[C@@H](O)C[C@@H](O)[C@H](O)CC[C@@H](O)C[C@@H](O)CC(=O)O[C@H]1C)C[C@H](O)[C@H]2C(=O)O
TherapeuticCategory: antifungal
  maximum recommended daily dose (mmol/kg-bw/day): 0.00162

## CNC(=O)Oc1ccc2c(c1)[C@]1(C)CCN(C)[C@@H]1N2C
TherapeuticCategory: cholinergic, miotic
  maximum recommended daily dose (mmol/kg-bw/day): 6.07e-05

## NC[C@H]1O[C@H](O[C@H]2[C@H](O)[C@@H](O[C@H]3O[C@H](CO)[C@@H](O)[C@H](N)[C@H]3O)[C@H](N)C[C@@H]2N)[C@H](N)[C@@H](O)[C@@H]1O
[1]
  maximum recommended daily dose (mmol/kg-bw/day): 0.031

## CC[N+](CC)(CCNC(=O)C(=O)NCC[N+](CC)(CC)Cc1ccccc1Cl)Cc1ccccc1Cl
TherapeuticCategory: cholinesterase inhibitor
  maximum recommended daily dose (mmol/kg-bw/day): 0.00274

## CCC(C)(C)N=C(N)NC#N
[2]
  maximum recommended daily dose (mmol/kg-bw/day): 0.0674

## N[C@@H](Cc1ccc(O)cc1)C(=O)O
TherapeuticCategory: none
  maximum recommended daily dose (mmol/kg-bw/day): 0.552

## CC(S)C(=O)NCC(=O)O (centres undefined)
TherapeuticCategory: hepatoprotectant, mucolytic, antidote to heavy metal poisoning
  maximum recommended daily dose (mmol/kg-bw/day): 0.204

## CS(=O)(=O)c1ccc([C@@H](O)[C@@H](CO)NC(=O)C(Cl)Cl)cc1
[1]
  maximum recommended daily dose (mmol/kg-bw/day): 0.14

## OC[C@@H](O)[C@@H](O)[C@H](O)[C@@H](O)CO
TherapeuticCategory: cathartic
  maximum recommended daily dose (mmol/kg-bw/day): 4.57

## COC(=O)[C@H](c1ccccc1Cl)N1CCc2sccc2C1
[3]
  maximum recommended daily dose (mmol/kg-bw/day): 0.00388

## CC1(C)S[C@@H]2[C@H](NC(=O)[C@@H](NC(=O)N3CCNC3=O)c3ccccc3)C(=O)N2[C@H]1C(=O)O
[1]
  maximum recommended daily dose (mmol/kg-bw/day): 0.217

## CN1CCN2c3ncccc3Cc3ccccc3C2C1 (centres undefined)
[4]
  maximum recommended daily dose (mmol/kg-bw/day): 0.00283

## O=C(O)COc1ccc(C(=O)c2cccs2)c(Cl)c1Cl
TherapeuticCategory: diuretic, uricosuric, antihypertensive
  maximum recommended daily dose (mmol/kg-bw/day): 0.0252

## Cc1ncc(CO)c(CO)c1O
TherapeuticCategory: enzyme cofactor vitamin
  maximum recommended daily dose (mmol/kg-bw/day): 0.0394

## Cc1ccc(S(=O)(=O)NC(=O)NC2CCCCC2)cc1N
TherapeuticCategory: antidiabetic
  maximum recommended daily dose (mmol/kg-bw/day): 0.0107

## CCCc1c2oc(C(=O)O)cc(=O)c2cc2c(=O)cc(C(=O)O)n(CC)c12
TherapeuticCategory: antiallergic, antiasthmatic
  maximum recommended daily dose (mmol/kg-bw/day): 0.000627

## C[C@]12CCC(=O)C=C1C=C[C@@H]1[C@@H]2CC[C@@]2(C)[C@H]1CC[C@@]2(O)CCC(=O)O
TherapeuticCategory: diuretic
  maximum recommended daily dose (mmol/kg-bw/day): 0.0371

## C[C@]12C=CC(=O)C=C1CC[C@@H]1[C@@H]2[C@@H](O)C[C@@]2(C)[C@H]1CC[C@]2(O)C(=O)COC(=O)CCC(=O)O
[5]
  maximum recommended daily dose (mmol/kg-bw/day): 0.0069

## CN1C(=O)C(O)N=C(c2ccccc2)c2cc(Cl)ccc21 (centres undefined)
[6]
  maximum recommended daily dose (mmol/kg-bw/day): 0.000831

## Cc1ccccc1-n1c(C)nc2ccccc2c1=O
TherapeuticCategory: hypnotic, sedative
  maximum recommended daily dose (mmol/kg-bw/day): 0.02

## C[C@]12CC[C@H]3[C@@H](CC[C@@]45O[C@@H]4C(O)=C(C#N)C[C@]35C)[C@@H]1CC[C@@H]2O
TherapeuticCategory: adrenocortical suppressant, treatment of breast cancer
  maximum recommended daily dose (mmol/kg-bw/day): 0.0243

## NC(=O)NNc1ccccc1
TherapeuticCategory: antipyretic
  maximum recommended daily dose (mmol/kg-bw/day): 0.165

## Clc1ccc2c(c1)C(c1ccccc1)=NCc1nncn1-2
[6]
  maximum recommended daily dose (mmol/kg-bw/day): 0.000113

## NS(=O)(=O)c1cc2c(cc1Cl)NC(CC1CCCC1)NS2(=O)=O (centres undefined)
[2]
  maximum recommended daily dose (mmol/kg-bw/day): 6.58e-05

## CN(C)CC/C=C1\c2ccccc2CSc2ccccc21
[4]
  maximum recommended daily dose (mmol/kg-bw/day): 0.00846

## CC(C)(O)CC(C)(O)c1ccc(Cl)cc1 (centres undefined)
[4]
  maximum recommended daily dose (mmol/kg-bw/day): 0.0437

## CC(C[N+](C)(C)C)OC(N)=O (centres undefined)
TherapeuticCategory: cholinergic
  maximum recommended daily dose (mmol/kg-bw/day): 0.0169

## OC[C@H]1O[C@](O)(CO)[C@@H](O)[C@@H]1O
TherapeuticCategory: fluid and nutrient replenisher, ferric form as hematinic
  maximum recommended daily dose (mmol/kg-bw/day): 2.31

## CC1(C)S[C@@H]2[C@H](NC(=O)COc3ccccc3)C(=O)N2[C@H]1C(=O)O
[1]
  maximum recommended daily dose (mmol/kg-bw/day): 0.0713

## CCc1cc2c(s1)N(C)C(=O)CN=C2c1ccccc1Cl
TherapeuticCategory: anxiolytic
  maximum recommended daily dose (mmol/kg-bw/day): 0.00314

## Cc1ncsc1CCCl
TherapeuticCategory: sedative, hypnotic, anticonvulsant
  maximum recommended daily dose (mmol/kg-bw/day): 0.0396

## CC(C(=O)O)c1ccc2c(c1)Cc1cccnc1O2 (centres undefined)
TherapeuticCategory: anti inflammatory
  maximum recommended daily dose (mmol/kg-bw/day): 0.0147

## N[C@@H]1CONC1=O
[1]
  maximum recommended daily dose (mmol/kg-bw/day): 0.164

## COc1cccc2c1C(=O)c1c(O)c3c(c(O)c1C2=O)C[C@@](O)(/C(C)=N/NC(=O)c1ccccc1)C[C@@H]3O[C@H]1C[C@H](N)[C@H](O)[C@H](C)O1
[7]
  maximum recommended daily dose (mmol/kg-bw/day): 0.0103

## NS(=O)(=O)c1cc2c(cc1Cl)NC=NS2(=O)=O
TherapeuticCategory: diuretic
  maximum recommended daily dose (mmol/kg-bw/day): 0.113

## O=C(O)CCCC[C@@H]1SC[C@@H]2NC(=O)N[C@@H]21
TherapeuticCategory: none
  maximum recommended daily dose (mmol/kg-bw/day): 1.36e-05

## CCOc1ccc2nc(S(N)(=O)=O)sc2c1
TherapeuticCategory: carbonic anhydrase inhibitor, diuretic
  maximum recommended daily dose (mmol/kg-bw/day): 0.0322

## CCOC(=O)CCCCCCCCC(C)c1ccc(I)cc1 (centres undefined)
[8]
  maximum recommended daily dose (mmol/kg-bw/day): 0.3

## CN(C(=O)CC(=O)N(C)c1c(I)c(C(=O)NC(CO)C(O)CO)c(I)c(C(=O)NC(CO)C(O)CO)c1I)c1c(I)c(C(=O)NC(CO)C(O)CO)c(I)c(C(=O)NC(CO)C(O)CO)c1I (centres undefined)
[8]
  maximum recommended daily dose (mmol/kg-bw/day): 0.0615

## CCN(CC)CCOC(=O)C(O)(c1ccccc1)c1ccccc1
TherapeuticCategory: antidepressant, anticholinergic
  maximum recommended daily dose (mmol/kg-bw/day): 0.000458

## CC[N+]1(CC)CCC(=C(c2ccccc2)c2ccccc2)C1C (centres undefined)
TherapeuticCategory: antispasmodic
  maximum recommended daily dose (mmol/kg-bw/day): 0.00518

## C[C@]12CC[C@@H]3c4ccc(O)cc4CC[C@H]3[C@@H]1CC[C@@H]2OC(=O)CCC1CCCC1
TherapeuticCategory: estrogen
  maximum recommended daily dose (mmol/kg-bw/day): 0.00126

## CC(=O)N(CC(O)CO)c1c(I)c(C(=O)NCC(O)CO)c(I)c(C(=O)NCC(O)CO)c1I (centres undefined)
[8]
  maximum recommended daily dose (mmol/kg-bw/day): 0.134

## NS(=O)(=O)c1cc2c(cc1Cl)NC(CSCc1ccccc1)=NS2(=O)=O
TherapeuticCategory: diuretic, antihypertensive
  maximum recommended daily dose (mmol/kg-bw/day): 0.00771

## OCc1cc(C(O)CNCCCCCCOCCCCc2ccccc2)ccc1O (centres undefined)
[9]
  maximum recommended daily dose (mmol/kg-bw/day): 3.37e-06

## COC(=O)[C@H]1[C@H]2C[C@@H]3c4[nH]c5ccccc5c4CCN3C[C@H]2C[C@@H](OC(=O)c2cc(OC)c(OC)c(OC)c2)[C@@H]1OC
[2]
  maximum recommended daily dose (mmol/kg-bw/day): 2.89e-05

## CN1C(=O)OC(C)(C)C1=O
TherapeuticCategory: anticonvulsant
  maximum recommended daily dose (mmol/kg-bw/day): 0.279

## C/C=C\C1=C(C(=O)O)N2C(=O)[C@@H](NC(=O)[C@H](N)c3ccc(O)cc3)[C@H]2SC1
[1]
  maximum recommended daily dose (mmol/kg-bw/day): 0.0429

## CN1C(=O)NC(=O)C(C)(C2=CCCCC2)C1=O (centres undefined)
TherapeuticCategory: sedative, hypnotic, anesthetic
  maximum recommended daily dose (mmol/kg-bw/day): 0.0353

## CC(O)Cn1cnc2c1c(=O)n(C)c(=O)n2C (centres undefined)
TherapeuticCategory: bronchodilator, vasodilator, smooth muscle relaxant
  maximum recommended daily dose (mmol/kg-bw/day): 0.168

## CN[C@@H]1CCc2[nH]c3ccc(C(N)=O)cc3c2C1
TherapeuticCategory: antimigraine
  maximum recommended daily dose (mmol/kg-bw/day): 0.000514

## CC(C)(C)NCC(O)COc1cccc2c1CCCC2=O (centres undefined)
TherapeuticCategory: antiglaucoma
  maximum recommended daily dose (mmol/kg-bw/day): 0.000858

## CNC(C)Cc1ccccc1OC (centres undefined)
[9]
  maximum recommended daily dose (mmol/kg-bw/day): 0.0558

## CC/C(=C(/CC)c1ccc(O)cc1)c1ccc(O)cc1
TherapeuticCategory: estrogen
  maximum recommended daily dose (mmol/kg-bw/day): 0.0373

## Nc1ncnc2c1ncn2[C@@H]1O[C@H](COP(=O)(O)OP(=O)(O)OP(=O)(O)O)[C@@H](O)[C@H]1O
TherapeuticCategory: coenzyme
  maximum recommended daily dose (mmol/kg-bw/day): 0.000394

## COc1cc(NCc2ccc3nc(N)nc(N)c3c2C)cc(OC)c1OC
[7]
  maximum recommended daily dose (mmol/kg-bw/day): 0.0033

## COCCc1ccc(OCC(O)CNC(C)C)cc1 (centres undefined)
TherapeuticCategory: antihypertensive, antianginal
  maximum recommended daily dose (mmol/kg-bw/day): 0.0249

## C=CCN(C1=NCCN1)c1c(Cl)cccc1Cl
TherapeuticCategory: antiarrhythmic
  maximum recommended daily dose (mmol/kg-bw/day): 0.00492

## CC(C)(Oc1ccc(Cl)cc1)C(=O)NC(=O)NCN1CCOCC1
[3]
  maximum recommended daily dose (mmol/kg-bw/day): 0.112

## CCCCC(=O)OCC(=O)[C@@]1(O)[C@H](C)C[C@H]2[C@@H]3CCC4=CC(=O)C=C[C@]4(C)[C@@]3(F)[C@@H](O)C[C@@]21C
TherapeuticCategory: glucocorticoid, anti inflammatory
  maximum recommended daily dose (mmol/kg-bw/day): 0.000315

## C[C@H]1C[C@@H]2[C@H]([C@@H](O)C[C@@]3(C)[C@H]2CC[C@]3(O)C(=O)CO)[C@@]2(C)C=CC(=O)C=C12
[5]
  maximum recommended daily dose (mmol/kg-bw/day): 0.0111

## CC(C)=CCN1CC[C@@]2(C)c3cc(O)ccc3C[C@@H]1[C@@H]2C
TherapeuticCategory: narcotic analgesic
  maximum recommended daily dose (mmol/kg-bw/day): 0.00876

## CC(CN(C)C)CN1c2ccccc2S(=O)(=O)c2ccccc21 (centres undefined)
TherapeuticCategory: antihistaminic
  maximum recommended daily dose (mmol/kg-bw/day): 0.00202

## CCC(Br)(CC)C(=O)NC(N)=O
[6]
  maximum recommended daily dose (mmol/kg-bw/day): 0.0704

## COC(=O)C1=CCCN(C)C1
[10]
  maximum recommended daily dose (mmol/kg-bw/day): 0.000215

## CCOC(=O)C1=C(C)NC(C)=C(C(=O)OC)C1c1cccc([N+](=O)[O-])c1 (centres undefined)
[2]
  maximum recommended daily dose (mmol/kg-bw/day): 0.000924

## Oc1ccc(Cl)cc1Cc1cc(Cl)ccc1O
[10]
  maximum recommended daily dose (mmol/kg-bw/day): 0.372

## CCC(=O)O[C@H]1CC[C@H]2[C@@H]3CC[C@H]4CC(=O)[C@H](C)C[C@]4(C)[C@H]3CC[C@]12C
[7]
  maximum recommended daily dose (mmol/kg-bw/day): 0.00463

## O=c1cc[nH]c(=S)[nH]1
TherapeuticCategory: thyroid depressant
  maximum recommended daily dose (mmol/kg-bw/day): 0.026

## O=c1oc2ccccc2c(O)c1Cc1c(O)c2ccccc2oc1=O
TherapeuticCategory: anticoagulant
  maximum recommended daily dose (mmol/kg-bw/day): 0.0149
